Assay results as given in US4871723A, “Method for treating psoriasis by externally administering to a patient a pharmaceutical composition containing active-type vitamin D” (priority 1984, dated 1989).
Where two headings read alike, the source gives them in different places.

Key:
[1] = system: psoriasis vulgaris; assay: therapeutic effect of ointment on psoriasis vulgaris of a person; assay type: in vivo; set-up: key to degree of severity: 4: very serious; 3: serious; 2: medium; 1: light; 0: disappeared
Experimental: (i) A suitable amount of 1α,24(R)-dihydroxycholecalciferol was dissolved in diisopropyl adipate, and the solution was uniformly mixed with white vaseline to form an ointment. The mixing ratio of diisopropyl adipate to white vaseline was always maintained at 1:4 by weight, and the concentration of 1α,24(R)-dihydroxycholecalciferol in the ointment was adjusted to 400 micrograms/30 mg, 40 micrograms/30 mg, and 4 micrograms/30 mg.
(ii) Each of the three ointment thus prepared was applied to the site of psoriasis vulgaris of a person, and their therapeutic effects were evaluated. Specifically, ±he ointment having a 1α,24(R)-(OH)2 -D3 concentration of 400 micrograms/30 mg was applied twice daily each in an amount of 30 mg to psoriasis vulgaris at the lower part of the right femur (diseased part A). The ointment having a 1α,24(R)-(OH)2 -D3 concentration of 40 micrograms/[…] was applied twice a day each in an amount of 30 mg to psoriasis vulgaris at the lower part of the left femur (diseased part B). The ointment having a 1α,24(R)-(OH concentration of 4 micrograms/30 mg was applied twice a day each in an amount of 30 mg to psoriasis vulgaris at the middle part of the right femur (the diseased part C).
The therapeutic effects were evaluated on a scale of 5 grades as follows: […]

[2] = system: psoriasis; conditions: clinical data, cited from earlier work
[3] = amount of vitamin D3 in femoral muscles of rats 2 hours after ointment application or oral administration; assay type: in vivo, male Wistar-strain rats
Experimental: (ii) Hair was removed from the femoral parts of five male Wistar-strain rats (body weight 220 to 230 g), and 100 mg of the ointment prepared in (i) was well rubbed into the hair-removed part of each animal. Two hours later, the rats were sacrificed, and the skin at the ointment-administeredsite was carefully removed and the muscles inside were taken out.

[4] = control group, oral 0.5 microgram
[5] = ointment-applied group, 100 mg ointment (5 micrograms/g)

Row | SMILES | relapse of lesion ([1]; after more than 30 days from stopping of drug application, diseased parts A to C) | therapeutic effect on psoriasis vulgaris ([1]; external application, ointment) | improvement of diseased parts ([1]; five days after beginning of treatment, diseased parts A to C (400, 40, 4 micrograms/30 mg, twice daily), original severity 4) | degree of severity ([1]; ten days, all cases cured, diseased parts A to C (400, 40, 4 micrograms/30 mg, twice daily), original severity 4) | effectiveness for the treatment of psoriasis ([2]; external application) | effectiveness for the treatment of psoriasis ([2]; oral administration) | Amounts in the femoral muscles, 1st time (5 rats) [3, 4] | Amounts in the femoral muscles, 2nd time (5 rats) [3, 4] | Amounts in the femoral muscles, 3rd time (5 rats) [3, 4] | Amounts in the femoral muscles, 1st time (5 rats) [3, 5] | Amounts in the femoral muscles, 2nd time (5 rats) [3, 5] | Amounts in the femoral muscles, 3rd time (5 rats) [3, 5]
1 | C=C1/C(=C\C=C2/CCC[C@]3(C)[C@@H]([C@H](C)CC[C@@H](O)C(C)C)CC[C@@H]23)C[C@@H](O)C[C@@H]1O [1α,24(R)-(OH)2 -D3, 1α,24(R)-dihydroxycholecalciferol] | no relapse of lesion was noted | good therapeutic effect | an improvement was observed in all cases | 0 | – | – | – | – | – | – | – | –
2 | C=C1/C(=C\C=C2/CCC[C@]3(C)[C@@H]([C@H](C)CCCC(C)(C)O)CC[C@@H]23)C[C@@H](O)C[C@@H]1O [1α,25-(OH)2 --D3, 1α,25-dihydroxycholecalciferol] | – | – | – | – | effective | effective | – | – | – | – | – | –
3 | C=C1/C(=C\C=C2/CCC[C@]3(C)[C@@H]([C@H](C)CCCC(C)C)CC[C@@H]23)C[C@@H](O)C[C@@H]1O [Example 1α-OH--D3, 1α-hydroxycholecalciferol] | – | – | – | – | – | effective | 103 | 98 | 126 | 441 | 607 | 588
